{"source": "patent US5451564A", "about": "“Antimicrobial composition comprising N-hydroxy heterocyclic thiones” (priority 1991, dated 1995)", "key": {"[1]": {"assay": "aqueous solubility of zinc complex after milling in pyrophosphate solution and dilution with distilled water until clear", "format": "physicochemical", "conditions": "for solubility in the presence of pyrophosphate (in words): relative to absence of oxy-phosphorus compound", "method": "The concentration of the 2:1 zinc complex was then determined.\nThe zinc complex was milled in a 0.1 molar solution of tetrasodium pyrophosphate as described in Example 1. This was then diluted with distilled water until a clear solution was obtained.\nThese solutions were prepared by the method described in Example 1."}, "[2]": {"tested_on": "Pseudomonas aeruginosa (ATCC 19429)", "assay": "survival of bacteria in shampoo preserved with biocide", "format": "cell-based", "method": "A shampoo having the following composition\n*Empicol, Empilan and Empigen are registered Trademarks of Albright and Wilson, was prepared by stirring the Empicol ESB70 in water, and then adding the Empilan 2502 followed by the Empigen BB to give a clear homogenous solution. An aqueous solution of citric acid was added with stirring to give a pH of 7. Finally, the sodium chloride was added and the whole diluted to parts by adding water.\nAliquots (20 parts) of the above shampoo were then prepared with concentrations of the biocides indicated in Table 4 at 500, 125, 31.25 and 7.8 ppm of active ingredient.\nThe above samples were then challenged with a 0.2 parts by volume inoculum of a 24 hour culture of Pseudomonas aeruginosa (ATCC 19429) containing approximately 1×10^8 colony forming units (cfu's) per milliliter. The samples were then incubated in the dark at 25° C., 1 milliliter samples taken after 24 hours, 48 hours and 7 days and the number of surviving bacteria determined.\nThe procedure described in Example 7 was repeated, except that the compounds and formulations used in that example were replaced by a commercially available formulation of zinc pyrithione or a 1% dispersion of the 2:1 complex of 1-hydroxy-2-pyridinethione and zinc in an aqueous solution of 0.1M tetrasodium pyrophosphate prepared as described in Example 1."}, "Aspergillus niger": {"tested_on": "Aspergillus niger", "conditions": "agar, 4 days at 25° C; 1% dispersion in 0.1 molar pyrophosphate (sample a: nil)", "method": "(§1) In the microbiological testing, the compositions were tested for anti-microbial activity against bacteria and/or fungi including a yeast. The bacteria used were one or more of Eshcerichia coli, Pseudomonas aeruginosa, Staphylococcus aureus and Bacillus subtills. The fungi/yeast used were one or more of Aspergillus niger, Candida albicans, Aureobasidum pullulans, Gliocladium roseum, and Penicillium pinophilum.\n(§2) These test organisms will be referred to hereafter as EC, PA, SA, BS, AN CA, AP, GR and PP respectively.\n(§3) The material to be tested was dissolved in a suitable solvent and the solution obtained diluted with a further quantity of the same solvent to give a desired product concentration.\n(§4) To a suitable agar medium was added a quantity of the product solution to give a desired concentration of the product. The agar medium containing the product was poured into petri dish plates and allowed to set.\n(§5) The test organisms were surface inoculated onto the test plates by means of a multi-point inoculator. Each test plate was inoculated with both bacteria, fungi and yeast. The plates were incubated for four days at 25° C.\n(§6) At the end of the incubation period, the plates were assessed visually for growth of the micro-organisms. The concentration of the product which inhibited the growth of a particular micro-organisms was recorded. This is the minimum inhibitory concentration (M.I.C.).\n(§7) Generally, the compositions are evaluated against bacteria at the 25 and 100 ppm levels, and against fungi and yeast at the 5, 25 and 100 ppm levels.\n(§8) 1% dispersions of the 1:2 zinc complex obtained from 1-hydroxy-2-pyridinethione were prepared in 0.1 molar solutions of various pyrophosphates as described in Example 1."}, "Aureobasidum pullulans": {"tested_on": "Aureobasidum pullulans", "conditions": "agar, 4 days at 25° C; 1% dispersion in 0.1 molar pyrophosphate (sample a: nil)", "method": "as §1, §2, §3, §4, §5, §6, §7, §8"}, "Bacillus subtills": {"tested_on": "Bacillus subtills", "conditions": "agar, 4 days at 25° C; 1% dispersion in 0.1 molar pyrophosphate (sample a: nil)", "method": "as §1, §2, §3, §4, §5, §6, §7, §8"}, "Candida albicans": {"tested_on": "Candida albicans", "conditions": "agar, 4 days at 25° C; 1% dispersion in 0.1 molar pyrophosphate (sample a: nil)", "method": "as §1, §2, §3, §4, §5, §6, §7, §8"}, "Eshcerichia coli": {"tested_on": "Eshcerichia coli", "conditions": "agar, 4 days at 25° C; 1% dispersion in 0.1 molar pyrophosphate (sample a: nil)", "method": "as §1, §2, §3, §4, §5, §6, §7, §8"}, "Gliocladium roseum": {"tested_on": "Gliocladium roseum", "conditions": "agar, 4 days at 25° C; 1% dispersion in 0.1 molar pyrophosphate (sample a: nil)", "method": "as §1, §2, §3, §4, §5, §6, §7, §8"}, "Penicillium pinophilum": {"tested_on": "Penicillium pinophilum", "conditions": "agar, 4 days at 25° C; 1% dispersion in 0.1 molar pyrophosphate (sample a: nil)", "method": "as §1, §2, §3, §4, §5, §6, §7, §8"}, "Pseudomonas aeruginosa": {"tested_on": "Pseudomonas aeruginosa", "conditions": "agar, 4 days at 25° C; 1% dispersion in 0.1 molar pyrophosphate (sample a: nil)", "method": "as §1, §2, §3, §4, §5, §6, §7, §8"}, "Staphylococcus aureus": {"tested_on": "Staphylococcus aureus", "conditions": "agar, 4 days at 25° C; 1% dispersion in 0.1 molar pyrophosphate (sample a: nil)", "method": "as §1, §2, §3, §4, §5, §6, §7, §8"}, "[3]": {"tested_on": "bacteria, fungi, yeasts and algae", "conditions": "in the presence of pyrophosphate salts", "method": "Further aspects of the present invention are described in the following illustrative examples. Unless otherwise stated all refer to parts by weight.\nas §1"}, "[4]": {"tested_on": "mixed algal suspension (Stichococcus bacillaris, Gloecapsa alpicola, Nostoc commune, Trentepohlia aurea)", "conditions": "zinc complex of 1-hydroxy-2-pyridinethione as 1% dispersion in 0.1M pyrophosphate (sample a: nil); re-challenge after 2 weeks, examined after 4 weeks", "quoted_text": "A sample containing no biocide was include as a control.\nThe above aliquots were then inoculated with 0.1 parts by volume of a mixed algal suspension of 7 day cultures of the following algae.\nThe samples were then incubated at 15° to 20° C. and exposed to artificial illumination of between 700 and 1200 LUX over a two week period, where the illumination was provided from the side and the light varied over a 24 hour period to give 16 hours illumination and 8 hours darkness.\nAfter a two week incubation period, the samples were re-challenged with the mixed algal inoculum, and again examined after a 4 week incubation period. The minimum inhibitory concentration at which algal growth was suppressed was then established by visual assessment."}}}
{"smiles": "S=C([S-])NCCNC(=S)[S-].[Zn+2]", "note": "[EBD, zinc complex of ethylene bis dithiocarbamate]", "values": [{"measurement": "solubility in the presence of pyrophosphate (in words)", "setting": "[1]", "result": "increased solubility"}, {"measurement": "Solubility", "setting": "[1]; zinc dithiocarbamate complexes, nil or 0.1 M tetrasodium pyrophosphate", "result": "< 5", "unit": "ppm"}]}
{"smiles": "CN(C)C(=S)[S-].CN(C)C(=S)[S-].[Zn+2]", "note": "[ZDM, zinc complex of dimethyldithiocarbamate]", "values": [{"measurement": "viable bacteria", "setting": "[2]; 125 ppm, after 24 HRS", "result": "< 10"}, {"measurement": "viable bacteria", "setting": "[2]; 125 ppm, after 48 HRS", "result": "< 10"}, {"measurement": "viable bacteria", "setting": "[2]; 500 ppm, after 7 DAYS", "result": "< 10"}, {"measurement": "viable bacteria", "setting": "[2]; 500 ppm, after 24 HRS", "result": "< 10"}, {"measurement": "viable bacteria", "setting": "[2]; 500 ppm, after 48 HRS", "result": "< 10"}]}
{"smiles": "On1ccccc1=S.On1ccccc1=S.[Zn]", "note": "[a, 1:2 zinc complex of 1-hydroxy-2-pyridinethione]", "values": [{"measurement": "Solubility", "setting": "[1]; 1:2 zinc complex of 1-hydroxy-2-pyridinethione, pebble milled in 0.1 molar pyrophosphate salt (sample a: nil), diluted with distilled water", "result": "< 10", "unit": "ppm"}, {"measurement": "solubility in the presence of pyrophosphate (in words)", "setting": "[1]", "result": "improved solubility"}, {"measurement": "MIC AN", "setting": "Aspergillus niger", "result": 25, "unit": "ppm"}, {"measurement": "MIC AP", "setting": "Aureobasidum pullulans", "result": 5, "unit": "ppm"}, {"measurement": "MIC BS", "setting": "Bacillus subtills", "result": 25, "unit": "ppm"}, {"measurement": "MIC CA", "setting": "Candida albicans", "result": 25, "unit": "ppm"}, {"measurement": "MIC EC", "setting": "Eshcerichia coli", "result": 25, "unit": "ppm"}, {"measurement": "MIC GR", "setting": "Gliocladium roseum", "result": 5, "unit": "ppm"}, {"measurement": "MIC PP", "setting": "Penicillium pinophilum", "result": 5, "unit": "ppm"}, {"measurement": "MIC PA", "setting": "Pseudomonas aeruginosa", "result": "NA (Not active at 100 ppm)"}, {"measurement": "MIC SA", "setting": "Staphylococcus aureus", "result": 25, "unit": "ppm"}, {"measurement": "effect of increased solubility in pyrophosphate on microbiological activity", "setting": "[3]", "result": "does not adversely affect the microbiological activity"}, {"measurement": "MIC (algal growth suppressed)", "setting": "[4]", "result": 0.64, "unit": "ppm"}]}
